Results: ChEMBL document CHEMBL1133921, “Absolute stereostructures of novel norcadinane- and trinoreudesmane-type sesquiterpenes with nitric oxide production inhibitory activity from Alpinia oxyphylla” (Bioorg Med Chem Lett, 2001)

Legend:
Assay type in all cases: functional
Mus musculus [1] = organism: Mus musculus; assay: Inhibitory effect on nitric oxide production in lipopolysaccharide activated mouse peritoneal macrophages at 3 uM
Mus musculus [2] = organism: Mus musculus; assay: Inhibitory concentration on nitric oxide production in lipopolysaccharide-activated mouse peritoneal macrophages
Mus musculus [3] = organism: Mus musculus; assay: Inhibitory effect on nitric oxide production in lipopolysaccharide activated mouse peritoneal macrophages at 10 uM

Row | IC50 (Mus musculus [2]) | SMILES | inhibition at 3 µM (Mus musculus [1]) | inhibition at 10 µM (Mus musculus [3])
1 | > 100 µM | C[C@@]12CCC(=O)C=C1[C@](C)(O)[C@H](O)CC2 [OXYPHYLLENONE B] | -8.1% | 0.4%
2 | 35 µM | C[C@@]12CCC(=O)C=C1[C@@](C)(O)[C@H](O)CC2 [OXYPHYLLENONE A] | 1.6% | -2.9%

More lines, now with the values behind:

Row | SMILES | IC50 (Mus musculus [2]) | inhibition at 3 µM (Mus musculus [1]) | inhibition at 10 µM (Mus musculus [3])
3 | CC(C)[C@@H]1CCC(=O)C2=C1[C@H](O)[C@](C)(O)CC2 [OXYPHYLLENODIOL A] | 28 µM | 11.8% | 
4 | CC(C)[C@H]1CCC(=O)C2=C1[C@H](O)[C@](C)(O)CC2 [OXYPHYLLENODIOL B] | > 100 µM | -4.2% | -0.4%
5 | CNC(=N)NCCC[C@H](N)C(=O)O [TILARGININE] |  | 2% | 
